22 compounds from US9586901B2, “Lactams” (UNILEVER PLC, priority 2006, dated 2017) can be followed below.

Series [1] deals with LasR. The series is described as follows: LasR assay (unstable gfp fused to the elastase promoter). The conditions noted are these: Pseudomonas aeruginosa, read-out: LasR (conc). In kind it is cell-based. Here is the method: Compounds of the present invention were also assayed using a LasR assay. The LasR assay provides a measurement of quorum sensing inhibition activity. The higher the percentage inhibition. […] In the LasR assay, an unstable gfp has been fused to the elastase promoter, so that the amount of Gfp is regulated by the QS system. The plasmid is put into Pseudomonas aeruginosa which makes its own AHL signals. The assay is performed by adding the compounds to be tested to the system at the beginning of the experiment, at different concentrations. Gfp expression is measured at different times during growth, ending at the 24 h time point. The percentage fluorescence was determined at the time point when the fluorescence reached its maximum in the control, usually around 11-12 h after inoculation.

Series [2] has as its system V. fischeri luxRI system. The series can be described thus: N-acylated homoserine lactone (AHL) quorum sensing assay, GFP reporter strain. In kind it is cell-based, E. coli. The settings on record: for ID40 at 3 nM OHHL: Table 4, number in parentheses, amount of compound lowering relative activity to 40%. On the procedure:
Compounds of the present invention were compared to compounds of the prior art in order using an AHL-quorum sensing assay which utilises a reporter strain that expresses Green Fluorescent Protein (GFP) in the presence of AHL signals. The assay is performed by measuring GFP output in the presence of the compound to be measured and comparing the output to a control. By using multiple samples at varying concentrations of compound and AHL, an inhibition index of compound activity can be generated. The inhibition index used in the present example is the relative amount of compound required to reduce GFP expression to 40% of the control. The inhibition index is termed AIC40. Lower values of AIC40 represent better inhibitors of the AHL quorum sensing system.
The reporter strain of bacterium used in this assay is E. coli into which the V. fischeri luxRI system has been engineered. A gfp gene is fused to the QS controlled luxI promoter as is described in (Andersen et al., 2001, and Andersen et al, 1998).
Measurement of AIC40 (ID40 at 3 nM OHHL)
Determination of the activity of compounds using the E. coli based luxRI construct was performed as follows.
In a 15 mL plastic tube, mix 3 mL of o.n. culture of the lux reporter strain with 12 mL fresh medium, incubate at 37° C. Label six tubes, 10, 20, two 50 and two 100. To each of the tubes, add OHHL (3-oxohexanoyl homoserine lactone) to a final concentration of 10, 20, 50, or 100 nM respectively in the AB medium (add enough medium to distribute across the appropriate number of wells). To the first row of the microplate (row A), add 200 ul of the OHHL/AB mixture. To the remaining rows (B-H) add 100 ul of the OHHL/AB mixture. To the first row (A) add compounds to be tested to the 200 ul mixture of OHHL/AB. Make a dilution series in the first 7 rows by transferring 100 μL from wells in row 1 to wells in row 2 and so on. Discard the remaining 100 μL from row 7. Add 100 μL diluted lux monitor to each well. Incubate the plate 2 hours at 37° C. and measure green fluorescence using the “Victor” plate reader.
Calculate ID40 for each column. To do this, calculate the relative activity in each well. […] Make a plot for each concentration of OHHL vs. the range of compound concentrations used. Calculate the amount of compound needed to lower the relative activity to 40%, this is termed inhibiting dose 40%, ID40. For each compound an inhibition index, AIC40, is found as follows: plot ID40 against its respective AHL concentration; AIC40 is the slope of the best straight line through the plotted points and origin.
The methodology for this assay is set out in 2(a) above.

In series [3] the test system is Staphylococcus epidermidis. The series can be described thus: S. epidermidis growth inhibition (OD600 growth curves). In kind it is cell-based. The settings on record: concentration of compound that significantly alters growth rate or final growth yield. On the procedure: The growth inhibition of Staphylococcus epidermidis by the compounds of the present invention was determined by growing S. epidermidis in 96 well microtitre plates in Trypticase Soy Broth plus 0.5% glucose in a Wallac Victor2 microplate reader. Each compound was added to the wells at different concentrations and a no-compound control and a set of blank wells were also used. The OD600 was measured hourly.

Series [4] relates to S. epidermidis biofilm. The series is described as follows: Inhibition of biofilm formation in petri dishes, S. epidermidis. The conditions noted are these: percent reduction of control. In kind it is cell-based. Here is the method: (§1) Biofilm formation in petri dishes was measured using the following protocol as a compromise between flow cells and microtitire plate based assays. The method increases the number of replicates (relative to flow cells) that can be tested while still generating a biofilm that has typical structures, such as microcolonies, which are important as differentiated structures within the biofilm. The method consists of placing a surface, such as a glass slide (for unattached compounds) or a modified plastic coupon (for covalently attached compounds) on the bottom of a sterile petri dish and adding growth medium. The bacteria are inoculated into the dish and allowed to incubate at the appropriate temperature at 50 rpm. The medium is replaced at 24 h and allowed to incubate a further 24 h, after which time, the slides are removed and rinsed to remove loosely attached cells. For monitoring biofilm formation on glass slides, the cells are either stained with a suitable fluorescent stain and are visualised using the confocal microscope and the biofilm (as % surface coverage) is quantified, or the biofilm is stained with crystal violet, washed thoroughly to remove excess stain, and subsequently destained and the absorbance at […] is measured to determine the amount of biofilm, as a function of crystal violet staining.

Series [5] deals with P. aeruginosa biofilm. The series is described as follows: Inhibition of biofilm formation in petri dishes, P. aeruginosa. In kind it is cell-based. The conditions noted are these: percent reduction of control. Here is the method: as §1
Series [6] relates to Murine L929 cells. The series is described as follows: Cytotoxicity study, L929 cell number after 48 hour culture. In kind it is cell-based. The settings on record: for Mean (cell number): L929, 48 hour; for % Inhibition: cell number vs non-challenged cultures. Here is the method: Murine L929 cells are established at low density and, during the testing period, grow to confluency in plastic petri dishes. 24 hours after the dishes are inoculated, the medium on the test dishes is aspirated and replaced with a medium containing the compound to be tested. The cell monolayer is then cultured for a further 48 hour period. At the end of the test period, cells are harvested from the dishes and their numbers assessed and compared with unperturbed cultures. Differences in cell numbers are expressed as a percentage inhibition in comparison to non-challenged cultures.

The mark [7] stands for this setting: Table 4 comparative results, first number of the cell, lower = better.
Setting [8] is: inhibition index: slope of ID40 against AHL concentration, lower = better inhibitor, NE = no effect.
Where [9] appears, read: 40 μg/ml, 30% = cytotoxic potential.

As for `C=C1C(c2ccccc2)=CC(=O)N1C`, in series [1], the inhibition at 50 µg/mL was 40%. Further, the “ID40 at 3 nM OHHL” value in series [2] (unit not given) stood at 163.26. In addition, the AIC40 in series [2] (setting [7]) and in series [2] (setting [8]) was 52.76 throughout.

On to `C=C1NC(=O)C=C1Cc1ccccc1`, for which the inhibition at 50 µg/mL in series [1] stood at 61%. Besides, the “ID40 at 3 nM OHHL” value in series [2] (unit not given) was determined as 239.79. Also, the AIC40 in series [2] (setting [7]) and in series [2] (setting [8]) was 69.45 throughout.

On to `C=C1NC(=O)C=C1c1ccc(C(F)(F)F)cc1`, for which the minimal effective concentration (commonly the lowest level tested that produced the effect sought) in series [3] was 1 µg/mL. Besides, the inhibition at 25 µg/mL in series [1] was found to be 54%. In series [2] (setting [8]), this compound displayed an AIC40 of 1.

As to `C=C1NC(=O)C=C1c1cccc(C(F)(F)F)c1`, in series [3], the minimal effective concentration was 0.5 µg/mL. The inhibition at 25 µg/mL in series [1] stood at 40%. The compound also yielded an AIC40 in series [2] (setting [8]) of 4.6.

Compound `C=C1NC(=O)C=C1c1cccc(F)c1` yielded a minimal effective concentration in series [3] of 0.5 µg/mL. The inhibition at 25 µg/mL in series [1] worked out at 70%. Also, the AIC40 in series [2] (setting [8]) is reported as 1.3.

Regarding `C=C1NC(=O)C=C1c1ccccc1F`, the minimal effective concentration in series [3] was found to be 20 µg/mL. For the same compound, in series [1], the inhibition at 25 µg/mL worked out at 60%. For the same compound, the AIC40 in series [2] (setting [8]) is 1.7. Further, the S. epidermidis biofilm in series [4] (0.3 ug/ml) is reported as 60% (0.3 ug/ml).

In series [3], `CC1(O)NC(=O)C=C1c1ccc(F)cc1` (stereo not shown) yielded a minimal effective concentration of 100 µg/mL. For the same compound, in series [1], the inhibition at 100 µg/mL turned out to be 28%.

As for `CC1(O)NC(=O)C=C1c1ccccc1F` (stereo not shown), the minimal effective concentration in series [3] was greater than 100 µg/mL. Also, in series [1], the inhibition at 100 µg/mL was 40%. Besides, the AIC40 in series [2] (setting [8]) is recorded as 9.9. In series [5] (20 ug/ml), the P. aeruginosa biofilm is 12% (20 ug/ml). Further, in series [4] (50 ug/ml), the S. epidermidis biofilm is 17% (50 ug/ml).

`CC1(O)NC(=O)C=C1c1cccc(F)c1` (stereo not shown) registered a minimal effective concentration in series [3] greater than 100 µg/mL.

The compound `COc1cccc(C2=CC(=O)NC2(C)O)c1` (stereo not shown) registered a minimal effective concentration in series [3] greater than 50 µg/mL.

Regarding `COc1ccccc1C1=CC(=O)NC1(C)O` (stereo not shown), the minimal effective concentration in series [3] is greater than 50 µg/mL. In addition, the inhibition at 100 µg/mL in series [1] was determined as 41%.

As to `CC1(O)NC(=O)C=C1Cc1ccccc1` (stereo not shown), the minimal effective concentration in series [3] is greater than 100 µg/mL.

For the compound `CC(C)CN1C(=O)C(c2ccccc2)=CC1=C(Br)Br` [Compound 223], the “Mean (cell number)” value in series [6] (10 μg/ml) amounted to 3.31E+05; in series [6] (20 μg/ml) it was 2.94E+05; in series [6] (40 μg/ml, E+05 = ×10^5) it was 2.07E+05. For the same compound, the figures for the “% Inhibition” value in series [6] (10 μg/ml), in series [6] (20 μg/ml) and in series [6] (setting [9]) were 24.1%, 32.5% and 52.4%, respectively.

As for `CC(C)CN1C(=O)C=C(c2ccccc2)C1=C(Br)Br` [Compound 226], the “Mean (cell number)” value in series [6] (5 μg/ml) is listed as 3.41E+05; in series [6] (10 μg/ml), 2.14E+05; in series [6] (20 μg/ml) it was 2.42E+05; in series [6] (40 μg/ml, E+05 = ×10^5) it was 1.67E+05. The % Inhibition (commonly how much of the control response was suppressed) in series [6] (5 μg/ml) was determined as 21.8%; in series [6] (10 μg/ml), 50.9%; in series [6] (20 μg/ml) it was 44.4%; in series [6] (setting [9]), 61.6%.

For `C=C1NC(=O)C=C1c1ccc(F)cc1` [Compound 257], the AIC40 result in series [2] (setting [7]) is “significantly better AIC40 values than compounds 198 and 205”.

In the case of `C=C1NC(=O)C=C1c1ccc(OC)cc1` [Compound 294], in series [2] (setting [7]), the AIC40 result is “significantly better AIC40 values than compounds 198 and 205”.

Turning to `C=C1NC(=O)C=C1c1ccc(Br)cc1` [Compound 295], the AIC40 result in series [2] (setting [7]) was “significantly better AIC40 values than compounds 198 and 205”.

Consider `CCO` [Ethanol], for which the “Mean (cell number)” value in series [6] (4% Ethanol) was 3.40E+05; in series [6] (5% Ethanol), 3.09E+05; in series [6] (7.5% Ethanol) it was 7.63E+04. For the same compound, the “% Inhibition” value in series [6] (4% Ethanol) stood at 30.7%; in series [6] (5% Ethanol) it was 36.9%; in series [6] (7.5% Ethanol), 84.5%.

`C=C1NC(=O)C=C1c1ccc(F)cc1` [drawing 21] had a minimal effective concentration in series [3] of 20 µg/mL. Besides, the inhibition at 50 µg/mL in series [1] worked out at 61%. Besides, the “ID40 at 3 nM OHHL” value in series [2] (unit not given) was determined as 17.61. Also, the AIC40 in series [2] (setting [7]) and in series [2] (setting [8]) was 4.61 each time. The P. aeruginosa biofilm in series [5] (12.5 ug/ml) was 78% (12.5 ug/ml). The S. epidermidis biofilm in series [4] (10 ug/ml) is recorded as 40% (10 ug/ml).

As for `C=C1NC(=O)C=C1c1ccc(OC)cc1` [drawing 24], the inhibition at 25 µg/mL in series [1] turned out to be 36%. Also, the “ID40 at 3 nM OHHL” value in series [2] was determined as 61 nM. Also, the AIC40 in series [2] (setting [7]) and in series [2] (setting [8]) was 5.4 each time. Also, the P. aeruginosa biofilm in series [5] (25 ug/ml) is 76% (25 ug/ml).

As for `O=C1C=C(Br)/C(=C/Br)N1Cc1ccccc1` [reference compound], in series [2] (setting [7]), the AIC40 was 27.

The compound `CCCC(O)C1=C(Br)/C(=C/Br)N(c2ccccc2)C1=O` (stereo not shown) [reference compound] had an AIC40 in series [2] (setting [7]) of 99.
